Results taken from article PMC11284792, “Backbone-Determined Antiarrhythmic Structure–Activity Relationships for a Mirror Image, Oligomeric Depsipeptide Natural Product” (Journal of Medicinal Chemistry, 2024).
“Also recorded” adds a separate entry of the source. Where two headings read alike, the source gives them in different places.

Legend:
[1] = amide bond, 24-membered ring, 3 steps
[2] = biological target: T1, RyR2 (Mus musculus, UniProt E9Q401); experiment: Calcium spark assay in saponin-permeabilized ventricular cardiomyocytes; format: cell-based, mouse (C57BL/6J); conditions: for Normalized Calcium Leak: CSV supplement, Series 2-5; for Normalized Calcium Leak / Calcium spark Amplitude (normalized to vehicle) / Calcium spark Leak (normalized to vehicle) / Calcium spark Mass (normalized to vehicle) / Calcium spark Frequency (normalized to vehicle): 25 μM drug, normalized to vehicle (DMSO), mean ± standard deviation; for Calcium spark Amplitude (normalized to vehicle) / Calcium spark Leak (normalized to vehicle) / Calcium spark Mass (normalized to vehicle) / Calcium spark Frequency (normalized to vehicle): Supplement Tables 2-3; for Calcium spark Amplitude (normalized to vehicle) / Calcium spark Leak (normalized to vehicle) / Calcium spark Mass (normalized to vehicle): permeabilized murine cardiomyocytes; for Calcium spark Frequency (normalized to vehicle): permeabilized murine left ventricular myocytes, 15 min incubation; for Inhibition of RyR2-mediated calcium sparks (in words): spark frequency after 15 min incubation with 25 μM compound, permeabilized myocytes
T1 construct: ventricular cardiomyocytes were isolated from C57Bl/6J mice, adhered to laminin-coated glass bottom culture dishes, permeabilized with saponin; endogenous in cells; host or cells: left ventricular cardiomyocytes freshly isolated from C57BL/6J mice, saponin-permeabilized
Description: With a wide range of ent-verticilide analogs in hand, organized by five series that systematically change the backbone functionality without modifying the alternating methyl and pentyl side chains, we pursued their evaluation in the calcium sparks assay for insight into potential antiarrhythmic activity.[3] Left ventricular myocytes were isolated from C57BL/6J mice and subjected to brief incubation with saponin, which permeabilizes the sarcolemma and enables equivalent access of compounds to RyR2, irrespective of their permeability.[14] Cardiomyocytes were then incubated in an internal solution designed to promote spontaneous RyR2-mediated calcium release events, known as sparks,[34] and the spark frequency was recorded following a 15 min incubation with 25 μM of each compound. Figure 3 summarizes these findings; no inhibition of RyR2 (lack of activity) is reflected as a value of 1 (dotted line). […] In that study, we noted that the 18-membered oligomer was more forgiving. […] Series 4–5 analogs produced nearly flat SAR, with no notable inhibition by any of the analogs.
Figure 3 RyR2-mediated calcium spark frequency in permeabilized left ventricular myocytes incubated with 25 μM drug for 15 min. All data normalized to vehicle (DMSO) condition. […] (A) *P < 0.0001 vs vehicle. N = 29 (2), 102 (5), 105 (5), 108 (5), 119 (4), and 87 cells (mice). Previously reported in Johnston et al. ACS Med. Chem. Lett., 2022, 13(11), 1755–1762. (B) *P < 0.0001 vs vehicle. # P = 0.00041 vs vehicle. N = 38, 46, 54, 50, and 50 cells, respectively, from 2 mice. (C) *P < 0.0001 vs vehicle. # P = 0.034 vs vehicle. N = 79 (4), 58 (3), 79 (4), 80 (5), and 91 (5) cells (mice). (D) P > 0.05 for all groups vs vehicle. N = 66 (4), 42 (2), 37 (2), 38 (2), 43(2), and 37 (2) cells (mice). (E) *P < 0.0001 vs vehicle. N = 66 (4), 85 (5), 93 (5), 100 (5), 89 (5), and 67 (4) cells (mice).
Calcium spark measurements were made, as previously described.[5] Briefly, ventricular cardiomyocytes were isolated from C57Bl/6J mice, adhered to laminin-coated glass bottom culture dishes, permeabilized with saponin, and incubated with an internal solution containing the calcium sensitive dye, Fluo-4. Elementary spark recordings were made using an Olympus inverted microscope equipped with a solid-state diode laser at 488 nm for excitation, 40× silicone objective (1.25 NA), and Hamamatsu CMOS camera for detection. Spark detection analysis was performed using SparkMaster2.[37]
Statistical analysis was carried out in R using a hierarchical clustering model to cluster data by experiment and account for mouse-to-mouse variability.[38] A cutoff value of 0.05 was used as the threshold to reject the null hypothesis. The numbers of cells and replicates (mice) are indicated in the figure legend for each compound.
Johnston et al. Supporting Information […]
of 0.05 was used as the threshold to reject the null hypothesis.
Safety: No unexpected or unusually high safety hazards were encountered.
Biological Experiment Data: Calcium spark parameters
For all series, assay is run with 25 μM solution of drug. Values are normalized to the vehicle (DMSO) condition and reported as mean ± standard deviation. Statistical comparisons were made using a hierarchical clustering model with Bonferroni correction. Adjusted p-values < 0.05 vs vehicle are indicated with an asterisk. Each mouse was an independent experiment, the replicates are listed as n (cells).
Supplement Table 1. Calcium spark parameters from murine cardiomyocytes for ent-verticilide and series 1 analogs.
Supplement Table 2. Calcium spark parameters from murine cardiomyocytes for series 2 analogs.
Supplement Table 3. Calcium spark parameters from murine cardiomyocytes for series 3 analogs. […]
Cardiovasc. Res.

[3] = the molecule shown is the open-chain precursor

T1 sequence (E9Q401 whole entry): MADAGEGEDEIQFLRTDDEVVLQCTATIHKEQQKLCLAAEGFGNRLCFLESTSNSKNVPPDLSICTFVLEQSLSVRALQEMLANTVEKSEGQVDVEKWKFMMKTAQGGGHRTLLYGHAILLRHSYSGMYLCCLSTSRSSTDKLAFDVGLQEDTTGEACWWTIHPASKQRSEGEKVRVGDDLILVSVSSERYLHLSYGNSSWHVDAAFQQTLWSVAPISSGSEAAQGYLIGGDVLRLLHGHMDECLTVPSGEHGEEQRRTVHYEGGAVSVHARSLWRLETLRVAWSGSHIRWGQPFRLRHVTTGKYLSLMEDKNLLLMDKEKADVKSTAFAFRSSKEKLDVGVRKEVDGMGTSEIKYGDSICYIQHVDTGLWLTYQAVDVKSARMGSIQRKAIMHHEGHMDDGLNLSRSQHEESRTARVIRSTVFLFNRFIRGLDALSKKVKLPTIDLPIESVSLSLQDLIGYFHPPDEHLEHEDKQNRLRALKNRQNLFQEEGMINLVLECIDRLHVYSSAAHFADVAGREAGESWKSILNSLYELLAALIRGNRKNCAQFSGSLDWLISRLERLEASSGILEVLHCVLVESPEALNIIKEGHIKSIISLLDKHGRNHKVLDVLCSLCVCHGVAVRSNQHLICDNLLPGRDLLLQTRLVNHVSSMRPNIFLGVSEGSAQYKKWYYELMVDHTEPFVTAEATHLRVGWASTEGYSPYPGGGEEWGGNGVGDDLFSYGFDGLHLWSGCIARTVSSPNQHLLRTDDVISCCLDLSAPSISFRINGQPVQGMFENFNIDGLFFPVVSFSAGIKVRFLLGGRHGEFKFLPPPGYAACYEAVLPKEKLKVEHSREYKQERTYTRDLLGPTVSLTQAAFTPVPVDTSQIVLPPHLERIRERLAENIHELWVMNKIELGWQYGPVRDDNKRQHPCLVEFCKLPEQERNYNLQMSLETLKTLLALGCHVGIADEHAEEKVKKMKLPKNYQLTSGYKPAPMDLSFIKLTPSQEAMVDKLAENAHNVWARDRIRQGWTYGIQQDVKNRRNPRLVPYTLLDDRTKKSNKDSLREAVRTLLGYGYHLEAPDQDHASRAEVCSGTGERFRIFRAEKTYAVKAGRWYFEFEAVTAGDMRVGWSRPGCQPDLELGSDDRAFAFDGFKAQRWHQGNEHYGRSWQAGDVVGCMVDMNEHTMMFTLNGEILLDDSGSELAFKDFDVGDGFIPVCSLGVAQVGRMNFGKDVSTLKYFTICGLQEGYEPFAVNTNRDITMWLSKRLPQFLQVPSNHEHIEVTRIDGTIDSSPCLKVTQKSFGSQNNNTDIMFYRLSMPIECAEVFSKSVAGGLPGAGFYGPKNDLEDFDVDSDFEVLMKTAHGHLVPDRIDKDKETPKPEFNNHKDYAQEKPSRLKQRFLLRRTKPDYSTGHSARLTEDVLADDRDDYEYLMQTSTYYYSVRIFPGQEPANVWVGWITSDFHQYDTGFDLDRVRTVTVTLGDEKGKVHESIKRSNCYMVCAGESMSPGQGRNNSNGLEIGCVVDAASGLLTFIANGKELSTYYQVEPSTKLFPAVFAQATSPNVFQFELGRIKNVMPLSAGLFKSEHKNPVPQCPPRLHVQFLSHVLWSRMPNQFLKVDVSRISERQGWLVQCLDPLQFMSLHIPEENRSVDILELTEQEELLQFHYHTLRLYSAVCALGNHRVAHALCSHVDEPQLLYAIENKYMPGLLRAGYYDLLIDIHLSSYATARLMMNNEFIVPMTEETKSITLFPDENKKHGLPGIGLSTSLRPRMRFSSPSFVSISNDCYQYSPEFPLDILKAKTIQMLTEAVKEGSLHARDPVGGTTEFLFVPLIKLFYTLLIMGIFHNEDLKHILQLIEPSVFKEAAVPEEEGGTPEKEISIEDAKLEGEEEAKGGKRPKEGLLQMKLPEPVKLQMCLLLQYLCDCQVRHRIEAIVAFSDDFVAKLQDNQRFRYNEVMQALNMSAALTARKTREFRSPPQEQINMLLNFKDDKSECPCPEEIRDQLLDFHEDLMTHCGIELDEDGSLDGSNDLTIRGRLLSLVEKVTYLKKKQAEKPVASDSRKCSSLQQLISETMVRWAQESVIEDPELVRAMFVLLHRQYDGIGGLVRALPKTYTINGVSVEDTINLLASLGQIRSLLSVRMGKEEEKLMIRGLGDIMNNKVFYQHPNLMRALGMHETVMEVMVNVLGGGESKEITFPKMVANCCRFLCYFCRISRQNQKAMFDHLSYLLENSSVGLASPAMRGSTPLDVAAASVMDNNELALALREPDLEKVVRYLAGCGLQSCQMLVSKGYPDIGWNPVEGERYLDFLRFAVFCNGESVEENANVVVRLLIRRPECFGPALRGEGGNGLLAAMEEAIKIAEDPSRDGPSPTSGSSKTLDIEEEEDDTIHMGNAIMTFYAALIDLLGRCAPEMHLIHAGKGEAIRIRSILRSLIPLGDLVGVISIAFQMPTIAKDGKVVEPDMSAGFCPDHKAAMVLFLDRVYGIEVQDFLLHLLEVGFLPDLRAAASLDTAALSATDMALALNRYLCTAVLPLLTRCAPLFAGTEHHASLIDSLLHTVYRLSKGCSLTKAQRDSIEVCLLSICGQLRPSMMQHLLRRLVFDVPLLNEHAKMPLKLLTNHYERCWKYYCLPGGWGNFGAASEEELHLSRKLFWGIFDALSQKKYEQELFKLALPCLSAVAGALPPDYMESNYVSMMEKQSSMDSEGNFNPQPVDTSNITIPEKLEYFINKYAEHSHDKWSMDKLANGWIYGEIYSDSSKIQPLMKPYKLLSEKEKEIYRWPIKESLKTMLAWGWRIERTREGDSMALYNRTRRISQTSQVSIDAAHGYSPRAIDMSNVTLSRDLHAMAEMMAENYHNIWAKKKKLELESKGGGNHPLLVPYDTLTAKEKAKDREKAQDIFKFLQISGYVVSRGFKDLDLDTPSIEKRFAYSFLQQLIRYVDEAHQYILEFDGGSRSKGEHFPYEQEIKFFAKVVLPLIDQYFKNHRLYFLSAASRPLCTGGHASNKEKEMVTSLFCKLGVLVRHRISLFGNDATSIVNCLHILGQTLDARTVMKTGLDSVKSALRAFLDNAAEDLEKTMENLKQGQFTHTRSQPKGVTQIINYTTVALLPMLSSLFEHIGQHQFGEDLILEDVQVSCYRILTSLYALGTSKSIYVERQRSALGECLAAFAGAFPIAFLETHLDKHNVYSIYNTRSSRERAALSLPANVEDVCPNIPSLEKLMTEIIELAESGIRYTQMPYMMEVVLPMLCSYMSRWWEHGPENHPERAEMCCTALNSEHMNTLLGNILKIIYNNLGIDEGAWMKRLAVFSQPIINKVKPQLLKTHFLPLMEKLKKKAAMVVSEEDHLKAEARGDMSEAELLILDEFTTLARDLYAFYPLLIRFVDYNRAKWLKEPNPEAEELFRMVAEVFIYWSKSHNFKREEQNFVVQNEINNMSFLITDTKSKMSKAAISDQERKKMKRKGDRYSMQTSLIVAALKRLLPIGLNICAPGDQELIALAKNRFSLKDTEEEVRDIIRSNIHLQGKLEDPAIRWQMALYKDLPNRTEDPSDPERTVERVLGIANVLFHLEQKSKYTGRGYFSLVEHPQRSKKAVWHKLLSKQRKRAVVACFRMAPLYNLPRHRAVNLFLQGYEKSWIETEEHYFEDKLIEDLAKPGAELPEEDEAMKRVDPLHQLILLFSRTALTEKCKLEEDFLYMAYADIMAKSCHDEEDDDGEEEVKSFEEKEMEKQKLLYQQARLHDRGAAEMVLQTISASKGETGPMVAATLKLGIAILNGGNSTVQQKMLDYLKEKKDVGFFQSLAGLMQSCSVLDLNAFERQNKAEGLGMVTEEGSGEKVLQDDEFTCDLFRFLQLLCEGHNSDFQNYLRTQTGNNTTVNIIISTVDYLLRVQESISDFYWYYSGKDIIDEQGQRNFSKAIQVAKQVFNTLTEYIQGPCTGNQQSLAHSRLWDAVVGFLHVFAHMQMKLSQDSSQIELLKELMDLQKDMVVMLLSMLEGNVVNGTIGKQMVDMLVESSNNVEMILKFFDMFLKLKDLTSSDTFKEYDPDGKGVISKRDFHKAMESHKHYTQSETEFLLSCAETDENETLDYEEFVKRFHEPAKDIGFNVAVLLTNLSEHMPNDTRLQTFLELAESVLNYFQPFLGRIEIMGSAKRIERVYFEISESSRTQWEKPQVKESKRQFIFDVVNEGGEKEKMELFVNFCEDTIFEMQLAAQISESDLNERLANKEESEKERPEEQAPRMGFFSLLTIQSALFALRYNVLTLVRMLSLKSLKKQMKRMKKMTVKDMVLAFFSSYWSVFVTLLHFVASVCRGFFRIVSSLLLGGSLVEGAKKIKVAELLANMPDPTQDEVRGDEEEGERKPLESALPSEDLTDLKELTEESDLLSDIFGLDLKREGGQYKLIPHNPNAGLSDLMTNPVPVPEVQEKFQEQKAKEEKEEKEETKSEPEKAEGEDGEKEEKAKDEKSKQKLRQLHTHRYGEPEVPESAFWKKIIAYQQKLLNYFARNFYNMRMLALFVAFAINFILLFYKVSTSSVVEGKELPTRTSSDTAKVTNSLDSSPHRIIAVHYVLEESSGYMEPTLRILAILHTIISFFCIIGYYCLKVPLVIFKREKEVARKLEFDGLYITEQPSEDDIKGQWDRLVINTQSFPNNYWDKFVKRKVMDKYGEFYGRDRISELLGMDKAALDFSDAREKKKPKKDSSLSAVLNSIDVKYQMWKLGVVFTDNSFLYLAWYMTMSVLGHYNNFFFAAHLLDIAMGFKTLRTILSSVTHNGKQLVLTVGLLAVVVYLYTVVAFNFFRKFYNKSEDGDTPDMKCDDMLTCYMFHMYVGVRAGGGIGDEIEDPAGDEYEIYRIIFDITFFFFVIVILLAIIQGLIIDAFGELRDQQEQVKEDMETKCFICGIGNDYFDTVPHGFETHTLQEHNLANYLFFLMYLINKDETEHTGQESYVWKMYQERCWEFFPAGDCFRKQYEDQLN

Substance | Normalized Calcium Leak [2] | Calcium spark Amplitude (normalized to vehicle) [2] | Calcium spark Leak (normalized to vehicle) [2] | Calcium spark Mass (normalized to vehicle) [2] | Calcium spark Frequency (normalized to vehicle) [2] | also measured
(3R,6S,9R,12S,15R,18S,21R,24S)-3,4,7,9,10,13,15,16,19,21,22-undecamethyl-6,12,18,24-tetrapentyl-1-oxa-4,7,10,13,16,19,22-heptaazacyclotetracosan-2,5,8,11,14,17,20,23-octaone |  |  |  |  |  | ring closure, yield after HPLC ([1]; PyBOP/DIPEA, DMF, 5.0 mM): 16%
H-dMeAla-MeAhp-dMeAla-Hhp-dMeAla-Hhp-dMeAla-Hhp-OH |  |  |  |  |  | ring closure, yield after HPLC [1, 3]: 5%
(3R,6S,9R,12S,15R,18S,21R,24S)-1,3,4,7,9,13,15,19,21-nonamethyl-6,12,18,24-tetrapentyl-1,4,7,10,13,16,19,22-octaazacyclotetracosan-2,5,8,11,14,17,20,23-octaone [4.5] | 1.43 ± 0.66 |  |  |  |  | 
(3R,6S,9R,12S,15R,18S,21R,24S)-1,3,7,9,13,15,19,21-octamethyl-6,12,18,24-tetrapentyl-1,4,7,10,13,16,19,22-octaazacyclotetracosan-2,5,8,11,14,17,20,23-octaone [4.6] | 1.15 ± 0.71 |  |  |  |  | 
(3S,6R,9S,12R,15S,18R,21S,24R)-1,6,7,12,13,18,19,24-Octamethyl-3,9,15,21-tetrapentyl-1,4,7,10,13,16,19,22-octaazacyclotetracosan-2,5,8,11,14,17,20,23-octaone |  |  |  |  |  | ring closure, yield after HPLC ([1]; PyBOP/DIEA, DMF, 4.6 mM, 0.0 °C): 11%
H-dMeAla-MeAhp-dMeAla-Ahp-dMeAla-MeAhp-dMeAla-Ahp-OH |  |  |  |  |  | ring closure, yield after HPLC [1, 3]: 7%
(3R,6S,9R,12S,15R,18S,21R,24S)-3,4,9,10,15,16,21,22-octamethyl-6,12,18,24-tetrapentyl-1,7,13-trioxa-4,10,16,19,22-pentaazacyclotetracosan-2,5,8,11,14,17,20,23-octaone [2.1] | 0.60 ± 0.65 | 0.93 ± 0.31 | 0.60 ± 0.65 | 1.04 ± 0.64 | 0.51 ± 0.25 | Inhibition of RyR2-mediated calcium sparks (in words) [2]: modest potency; also recorded: measurable activity
(3S,6R,9S,12R,15S,18R,21S,24R)-1,4,6,7,10,12,13,16,18,19,24-undecamethyl-3,9,15,21-tetrapentyl-1,4,7,10,13,16,19,22-octaazacyclotetracosan-2,5,8,11,14,17,20,23-octaone [5.2] | 1.08 ± 0.66 |  |  |  |  | 
(3R,6S,9R,12S,15R,18S,21R,24S)-3,4,9,10,15,16,19,21,22-nonamethyl-6,12,18,24-tetrapentyl-1,7,13-trioxa-4,10,16,19,22-pentaazacyclotetracosan-2,5,8,11,14,17,20,23-octaone [3.1] | 0.75 ± 0.63 | 0.99 ± 0.20 | 0.75 ± 0.63 | 0.81 ± 0.55 | 0.79 ± 0.29 | Inhibition of RyR2-mediated calcium sparks (in words) [2]: partial inhibition, but less so than analog 2.1; also recorded: measurable activity
(3R,6S,9R,12S,15R,18S,21R,24S)-1,3,4,7,9,10,13,15,16,19,21-undecamethyl-6,12,18,24-tetrapentyl-1,4,7,10,13,16,19,22-octaazacyclotetracosan-2,5,8,11,14,17,20,23-octaone |  |  |  |  |  | ring closure, yield after HPLC ([1]; PyBOP/DIPEA, DMF, 4.6 mM): 7.5%
H-dMeAla-MeAhp-dMeAla-MeAhp-dMeAla-MeAhp-dMeAla-Ahp-OH? |  |  |  |  |  | ring closure, yield after HPLC [1, 3]: 5%
H-dMeAla-Hhp-dMeAla-Ahp-dMeAla-Ahp-dMeAla-Ahp-OH? |  |  |  |  |  | ring closure, yield after HPLC [1, 3]: 7%
(3S,6R,9S,12R,15S,18R,21S,24R)-1,4,6,7,10,12,13,18,19,24-decamethyl-3,9,15,21-tetrapentyl-1,4,7,10,13,16,19,22-octaazacyclotetracosan-2,5,8,11,14,17,20,23-octaone [5.3] | 1.23 ± 0.57 |  |  |  |  | 
(3R,6S,9R,12S,15R,18S,21R,24S)-3,4,9,10,15,16,21,22-octamethyl-6,12,18,24-tetrapentyl-1,13-dioxa-4,7,10,16,19,22-hexaazacyclotetracosan-2,5,8,11,14,17,20,23-octaone [2.3] | 1.03 ± 0.53 | 0.92 ± 0.19 | 1.03 ± 0.53 | 1.02 ± 0.43 | 1.01 ± 0.20 | 
(3R,6S,9R,12S,15R,18S,21R,24S)-1,3,4,7,9,10,13,15,16,19,21-undecamethyl-6,12,18,24-tetrapentyl-1,4,7,10,13,16,19,22-octaazacyclotetracosan-2,5,8,11,14,17,20,23-octaone [4.2] | 1.35 ± 1.14 |  |  |  |  | 
(3S,6R,9S,12R,15S,18R,21S,24R)-1,6,7,12,13,18,19,24-Octamethyl-3,9,15,21-tetrapentyl-1,4,7,10,13,16,19,22-octaazacyclotetracosan-2,5,8,11,14,17,20,23-octaone [2.5] | 1.09 ± 0.46 | 1.17 ± 0.34 | 1.09 ± 0.46 | 1.06 ± 0.35 | 1.04 ± 0.20 | 
(3R,6S,9R,12S,15R,18S,21R,24S)-3,4,9,10,15,16,21,22-octamethyl-6,12,18,24-tetrapentyl-1-oxa-4,7,10,13,16,19,22-heptaazacyclotetracosan-2,5,8,11,14,17,20,23-octaone [2.4] | 0.97 ± 0.56 | 1.08 ± 0.22 | 0.97 ± 0.56 | 0.98 ± 0.39 | 0.97 ± 0.17 | 
(3R,6S,9R,12S,15R,18S,21R,24S)-3,4,9,10,13,15,16,19,21,22-decamethyl-6,12,18,24-tetrapentyl-1,7-dioxa-4,10,13,16,19,22-hexaazacyclotetracosan-2,5,8,11,14,17,20,23-octaone [3.2] | 0.99 ± 0.53 | 1.02 ± 0.20 | 0.99 ± 0.53 | 1.03 ± 0.50 | 0.97 ± 0.28 | 
(3S,6R,9S,12R,15S,18R,21S,24R)-1,4,6,7,12,13,16,18,19,24-decamethyl-3,9,15,21-tetrapentyl-1,4,7,10,13,16,19,22-octaazacyclotetracosan-2,5,8,11,14,17,20,23-octaone [5.4] | 1.14 ± 0.69 |  |  |  |  | 
(3S,6R,9S,12R,15S,18R,21S,24R)-1,4,6,7,12,13,18,19,24-nonamethyl-3,9,15,21-tetrapentyl-1,4,7,10,13,16,19,22-octaazacyclotetracosan-2,5,8,11,14,17,20,23-octaone [5.5] | 1.14 ± 0.65 |  |  |  |  | 
(3R,6S,9R,12S,15R,18S,21R,24S)-3,4,7,9,10,15,16,19,21,22-decamethyl-6,12,18,24-tetrapentyl-1,13-dioxa-4,7,10,16,19,22-hexaazacyclotetracosan-2,5,8,11,14,17,20,23-octaone [3.3] | 0.93 ± 0.45 | 1.00 ± 0.16 | 0.93 ± 0.45 | 0.96 ± 0.42 | 0.96 ± 0.26 | 
